Experimental data as given in ChEMBL document CHEMBL1201862, “PubChem BioAssay data set” (2004).
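Assay format: 96-well plates, 48-hour exposure. GI50 is the concentration that inhibits growth by half.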 The source made the active and inactive calls. Rule as the data show it: active = GI50 up to about 1.1 µM and inactive = higher.

What was measured:
Assay in all cases: growth of human tumour cells (NCI), 48 h
786-0 = test system: 786-0
A549 = test system: A549
COLO 205 = test system: COLO 205
EKVX = test system: EKVX
HCC 2998 = test system: HCC 2998
HOP-92 = test system: HOP-92
HT-29 = test system: HT-29
IGROV-1 = test system: IGROV-1
LOX IMVI = test system: LOX IMVI
MOLT-4 = test system: MOLT-4
NCI-H226 = test system: NCI-H226
NCI-H460 = test system: NCI-H460
NCI-H522 = test system: NCI-H522
OVCAR-3 = test system: OVCAR-3
OVCAR-4 = test system: OVCAR-4
U-251 = test system: U-251
UO-31 = test system: UO-31
SR = test system: SR

Measured: GI50

CCOC(=O)C1=C(OC(OCC)C(CC)[Se]c2ccccc2)CCCC1 (stereo not drawn)
inactive: 786-0 15.6 µM | A549 45.3 µM | COLO 205 34.7 µM | EKVX 34.4 µM | HCC 2998 13.4 µM | HOP-92 21.2 µM | HT-29 24.7 µM | IGROV-1 26.8 µM | LOX IMVI 4.54 µM | MOLT-4 14.7 µM | NCI-H226 21.8 µM | NCI-H460 36.4 µM | NCI-H522 14.6 µM | OVCAR-3 21.1 µM | OVCAR-4 14.5 µM | U-251 12.6 µM | UO-31 35.3 µM

CCOC(=O)NC(=O)c1cn(CCCCCCCCCCC(=O)N2CCN(CCn3cc(C(=O)NC(=O)OCC)c(=O)[nH]c3=O)CC2)c(=O)[nH]c1=O
inactive: 786-0 > 100 µM | A549 > 100 µM | COLO 205 > 100 µM | EKVX > 100 µM | HCC 2998 > 100 µM | HOP-92 > 100 µM | HT-29 > 100 µM | IGROV-1 > 100 µM | LOX IMVI > 100 µM | MOLT-4 > 100 µM | NCI-H460 > 100 µM | OVCAR-3 > 100 µM | OVCAR-4 > 100 µM | U-251 > 100 µM

O=C(NC(=O)c1cn(CCN2CCN(C(=O)NCCCCCCNC(=O)N3CCN(CCn4cc(C(=O)NC(=O)OCc5ccccc5)c(=O)[nH]c4=O)CC3)CC2)c(=O)[nH]c1=O)OCc1ccccc1
inactive: 786-0 > 100 µM | A549 > 100 µM | COLO 205 > 100 µM | EKVX > 100 µM | HOP-92 > 100 µM | HT-29 > 100 µM | IGROV-1 > 100 µM | LOX IMVI > 100 µM | MOLT-4 > 100 µM | NCI-H460 > 100 µM | OVCAR-3 > 100 µM | OVCAR-4 > 100 µM | U-251 > 100 µM | UO-31 > 100 µM

COC1OC2COC(c3ccccc3)OC2C(O)C1Br (stereo not drawn)
inactive: 786-0 > 100 µM | A549 > 100 µM | COLO 205 > 100 µM | HCC 2998 > 100 µM | HOP-92 > 100 µM | HT-29 > 100 µM | IGROV-1 > 100 µM | LOX IMVI > 100 µM | MOLT-4 > 100 µM | NCI-H460 > 100 µM | NCI-H522 > 100 µM | OVCAR-3 > 100 µM | OVCAR-4 > 100 µM | SR > 100 µM | U-251 > 100 µM

CC1=C(c2ccccc2)CON(c2ccccc2)C1
inactive: 786-0 36.8 µM | A549 54.5 µM | COLO 205 33.1 µM | EKVX 46.6 µM | HCC 2998 67.5 µM | HT-29 36.9 µM | IGROV-1 43.3 µM | LOX IMVI 30.8 µM | MOLT-4 29.6 µM | NCI-H226 85.7 µM | NCI-H460 35 µM | NCI-H522 15.2 µM | OVCAR-3 85.7 µM | OVCAR-4 > 100 µM | SR 31.3 µM | U-251 25.8 µM | UO-31 29.7 µM

O=C1c2ccccc2C2C1N2C(=O)C(F)(F)F (stereo not drawn)
inactive: 786-0 > 100 µM | A549 > 100 µM | COLO 205 > 100 µM | EKVX > 100 µM | HOP-92 > 100 µM | HT-29 74.8 µM | IGROV-1 > 100 µM | LOX IMVI 49 µM | MOLT-4 > 100 µM | NCI-H226 > 100 µM | NCI-H460 > 100 µM | NCI-H522 > 100 µM | OVCAR-3 > 100 µM | OVCAR-4 > 100 µM | SR 26.9 µM | U-251 > 100 µM | UO-31 > 100 µM

CCOC(=O)CNC(=O)OCc1ccccc1
inactive: 786-0 > 100 µM | A549 > 100 µM | COLO 205 > 100 µM | HCC 2998 > 100 µM | HOP-92 > 100 µM | HT-29 > 100 µM | IGROV-1 > 100 µM | LOX IMVI > 100 µM | MOLT-4 > 100 µM | NCI-H460 > 100 µM | NCI-H522 > 100 µM | OVCAR-3 > 100 µM | U-251 > 100 µM | UO-31 > 100 µM

O=C1CC2Sc3ccccc3N=C2N1c1ccc(Cl)cc1Cl (stereo not drawn)
inactive: 786-0 30.3 µM | A549 83.4 µM | COLO 205 > 100 µM | EKVX > 100 µM | HCC 2998 > 100 µM | HOP-92 30.3 µM | HT-29 92 µM | IGROV-1 78.2 µM | LOX IMVI 40.7 µM | MOLT-4 23.3 µM | NCI-H226 > 100 µM | NCI-H460 > 100 µM | OVCAR-3 > 100 µM | OVCAR-4 > 100 µM | U-251 32.2 µM | UO-31 29.9 µM

Cc1cc2c(=O)cc(-c3ccc(Cl)cc3Cl)oc2c(C(=O)O)c1C
inactive: 786-0 > 100 µM | A549 > 100 µM | COLO 205 > 100 µM | EKVX > 100 µM | HT-29 > 100 µM | IGROV-1 > 100 µM | LOX IMVI > 100 µM | MOLT-4 > 100 µM | NCI-H226 > 100 µM | NCI-H460 > 100 µM | NCI-H522 25.3 µM | OVCAR-3 > 100 µM | OVCAR-4 > 100 µM | U-251 > 100 µM | UO-31 > 100 µM

O=C1c2ccccc2C(=O)N1C/C=C/CO
inactive: 786-0 > 100 µM | A549 > 100 µM | COLO 205 > 100 µM | HCC 2998 > 100 µM | IGROV-1 > 100 µM | MOLT-4 > 100 µM | NCI-H226 > 100 µM | NCI-H460 > 100 µM | NCI-H522 98.2 µM | OVCAR-3 > 100 µM | OVCAR-4 > 100 µM | SR > 100 µM | U-251 > 100 µM | UO-31 > 100 µM

O=C(O)CCCNS(=O)(=O)c1ccccc1
inactive: 786-0 > 100 µM | A549 > 100 µM | COLO 205 > 100 µM | EKVX > 100 µM | HCC 2998 > 100 µM | HOP-92 > 100 µM | HT-29 > 100 µM | IGROV-1 > 100 µM | LOX IMVI > 100 µM | MOLT-4 > 100 µM | NCI-H226 > 100 µM | NCI-H460 > 100 µM | NCI-H522 > 100 µM | OVCAR-3 > 100 µM | OVCAR-4 > 100 µM | U-251 > 100 µM | UO-31 > 100 µM

CC(=O)O/N=C/c1ncccc1OC(C)=O
inactive: 786-0 > 100 µM | A549 > 100 µM | COLO 205 > 100 µM | EKVX > 100 µM | HOP-92 > 100 µM | HT-29 > 100 µM | IGROV-1 > 100 µM | LOX IMVI > 100 µM | MOLT-4 > 100 µM | NCI-H226 > 100 µM | NCI-H460 > 100 µM | NCI-H522 > 100 µM | OVCAR-3 > 100 µM | OVCAR-4 > 100 µM | SR > 100 µM | U-251 > 100 µM | UO-31 > 100 µM

COC(=O)CC1NC(=O)C1C(C)(OC)OC (stereo not drawn)
inactive: 786-0 > 100 µM | A549 > 100 µM | COLO 205 > 100 µM | EKVX > 100 µM | HCC 2998 > 100 µM | HT-29 > 100 µM | IGROV-1 > 100 µM | LOX IMVI > 100 µM | MOLT-4 > 100 µM | NCI-H226 > 100 µM | NCI-H460 > 100 µM | OVCAR-3 > 100 µM | OVCAR-4 > 100 µM | SR > 100 µM | U-251 > 100 µM | UO-31 > 100 µM

c1ccc(SC(CCCCOC2CCCCO2)Sc2ccccc2)cc1 (stereo not drawn)
inactive: 786-0 > 100 µM | A549 93.3 µM | COLO 205 94.6 µM | EKVX > 100 µM | HCC 2998 > 100 µM | HOP-92 11.8 µM | HT-29 52 µM | IGROV-1 82.8 µM | LOX IMVI 65.5 µM | MOLT-4 23.3 µM | NCI-H460 99.1 µM | NCI-H522 18.4 µM | OVCAR-3 56.5 µM | OVCAR-4 55.6 µM | U-251 > 100 µM | UO-31 13.4 µM

O=S(=O)(O)C(F)(F)C(F)(F)C(F)(F)C(F)(F)F
inactive: 786-0 > 100 µM | A549 > 100 µM | COLO 205 > 100 µM | EKVX > 100 µM | HCC 2998 > 100 µM | HOP-92 9.51 µM | HT-29 > 100 µM | IGROV-1 > 100 µM | LOX IMVI > 100 µM | MOLT-4 > 100 µM | NCI-H460 > 100 µM | OVCAR-3 > 100 µM | OVCAR-4 > 100 µM | U-251 > 100 µM | UO-31 > 100 µM

COc1cc2nc(Sc3c([N+](=O)[O-])ncn3C)[nH]c2cc1OC
inactive: 786-0 71 µM | A549 34.8 µM | COLO 205 13.6 µM | EKVX 21.2 µM | HCC 2998 17.9 µM | HOP-92 16.5 µM | HT-29 41.7 µM | IGROV-1 14.2 µM | LOX IMVI 41.6 µM | MOLT-4 12.5 µM | NCI-H226 28.3 µM | NCI-H460 49.9 µM | OVCAR-3 46.8 µM | OVCAR-4 38.5 µM | SR 13.3 µM | U-251 31.3 µM | UO-31 46 µM

COC1CC2C3/C(=N/Nc4ccc([N+](=O)[O-])cc4[N+](=O)[O-])CCC2(C)C3C1 (stereo not drawn)
inactive: 786-0 > 10 µM | A549 > 100 µM | COLO 205 > 10 µM | HCC 2998 > 10 µM | HOP-92 > 10 µM | HT-29 > 10 µM | IGROV-1 > 10 µM | LOX IMVI > 10 µM | MOLT-4 42.3 µM | NCI-H226 > 10 µM | NCI-H460 > 100 µM | NCI-H522 > 10 µM | OVCAR-3 > 10 µM | OVCAR-4 > 10 µM | SR 37.1 µM | U-251 > 10 µM | UO-31 > 10 µM
